The experiment deals with T1, CNOT7 (Homo sapiens, UniProt Q9UIV1).
T1 construct: biotin (biotinylated); purchased Ichor Life Sciences
Briefly: Binding of compounds to CNOT7 by surface plasmon resonance (SPR). On the procedure: Surface plasmon resonance (SPR) was used to evaluate the binding of compounds to CNOT7. Experiments were performed on a Biacore 8K (Cytiva) with a running buffer consisting of 20 mM HEPES pH7.5, 100 mM KCl, 3 mM MgCl2, 1 mM TCEP, 0.05% tween-20, 2% DMSO. Briefly, biotinylated CNOT7 (Ichor Life Sciences) at a concentration of 70 μg/ml was immobilized to a streptavidin coated chip (Cytiva sensor chip SA) for 1200 sec at a flow rate of 5 μl/min (typical immobilization level 7,500 RU). For compound binding experiments, various concentrations of analyte were flowed over the chip with 120 sec association phase, 120 sec dissociation phase, at a flow rate of 30 ul/min and collection rate of 10 Hz. Reference channel subtraction and solvent correction were applied to all sensograms prior to data analysis. Sensograms were fit to 1:1 steady state affinity model. FIGS. 3 and 4 show the binding of exemplary compounds and the AMP control (a known CNOT7 active site binder) at various concentrations to CNOT7.
(Surface plasmon resonance follows binding to a sensor surface in real time, without labels.)

Setting [1] is: Table 6, dissociation constant for CNOT7 by SPR.
Where [2] appears, read: dissociation constant by SPR, Table 7.

T1 sequence (Q9UIV1 whole entry): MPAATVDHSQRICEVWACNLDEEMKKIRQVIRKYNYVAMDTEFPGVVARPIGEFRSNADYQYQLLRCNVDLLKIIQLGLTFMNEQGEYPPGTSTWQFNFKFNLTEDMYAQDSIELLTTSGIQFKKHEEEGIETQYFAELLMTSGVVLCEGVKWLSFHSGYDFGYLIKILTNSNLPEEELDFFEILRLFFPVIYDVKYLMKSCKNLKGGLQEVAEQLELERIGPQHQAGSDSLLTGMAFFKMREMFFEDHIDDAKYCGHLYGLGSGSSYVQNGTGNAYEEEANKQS

Take `COc1cc(F)c([C@@H](C)NC(=O)CSc2nc(=O)[nH]cc2Cl)cc1F` [Compound I-311]: the equilibrium dissociation constant (Kd) under setting [1] is 1 to 25 µM.

With `COc1cc(F)c([C@@H](C)NC(=O)CSc2nc(=O)[nH]cc2Cl)c(F)c1` [Compound I-312], under setting [1], the equilibrium dissociation constant (Kd) lay within 1 to 25 µM.

As to `COc1c(F)cc([C@@H](C)NC(=O)CSc2nc(=O)[nH]cc2Cl)cc1F` [Compound I-313], the dissociation constant (Kd) under setting [1] was in the range of 1 to 25 µM.

In the case of `C[C@@H](NC(=O)CSc1nc(=O)[nH]cc1Cl)c1ccc(Cl)c(F)c1` [Compound I-314], where the note is “Table 5, dissociation constant for CNOT7 by SPR”, the Kd was in the range of 1 to 25 µM.

Under setting [1], `Cc1c[nH]c(=O)nc1SCC(=O)NC(C)c1ccc2c(c1)CC(=O)N2` (stereo not drawn) [Compound I-322] had an equilibrium dissociation constant (Kd) of 1 to 25 µM.

Turning to `COCC(Sc1nc(=O)[nH]cc1Cl)C(=O)NC(C)c1ccc2c(c1)CC(=O)N2` (stereo not drawn) [Compound I-323], the Kd is, setting by setting: under setting [1], 1 to 25 µM; under setting [2], 1 to 25 µM.

On to `COc1ccc([C@@H](C)NC(=O)C2(Sc3nc(=O)[nH]cc3C)CCC2)cc1` [Compound I-324], for which the Kd runs as follows: under setting [1], 1 to 25 µM; under setting [2], 0.1 to 1 µM.

In the case of `COC[C@H](Sc1nc(=O)[nH]cc1C)C(=O)N[C@@H](C)c1ccc2c(c1)CC(=O)N2` [Compound I-325], the equilibrium dissociation constant (Kd) reads like this: under setting [1], 1 to 25 µM; under setting [2], 1 to 25 µM.

`C#CCOCCOCCOCC(Sc1nc(=O)[nH]cc1C)C(=O)NC(C)c1ccc(OC)cc1F` (stereo not drawn) [Compound I-326]: the equilibrium dissociation constant (Kd) reads like this: under setting [1], 1 to 25 µM; under setting [2], 1 to 25 µM.

Take `COc1ccc([C@@H](NC(=O)CSc2nc(=O)[nH]cc2C)C(C)C)cc1` [Compound I-327]: the Kd by setting is: under setting [1], 1 to 25 µM; under setting [2], 1 to 25 µM.

As to `Cc1c[nH]c(=O)nc1SCC(=O)N[C@@H](C)c1ccc2c(c1)CC(=O)N2` [Compound I-328], the dissociation constant Kd under setting [1] was 1 to 25 µM and the Kd under setting [2] lay in the range of 1 to 25 µM.

Compound `COCC(Sc1nc(=O)[nH]cc1C)C(=O)NC(C)c1ccc2c(c1)CC(=O)N2` (stereo not drawn) [Compound I-331] returned a Kd under setting [2] of 1 to 25 µM.

On to `COC[C@@H](Sc1nc(=O)[nH]cc1C)C(=O)N[C@@H](C)c1ccc2c(c1)CC(=O)N2` [Compound I-332], for which the Kd under setting [2] fell in the range of 1 to 25 µM.

Take `COC[C@@H](Sc1nc(=O)[nH]cc1Cl)C(=O)N[C@H](C)c1ccc2c(c1)CC(=O)N2` [Compound I-333]: the dissociation constant Kd under setting [2] lay in the range of 1 to 25 µM.

As for `COC[C@H](Sc1nc(=O)[nH]cc1Cl)C(=O)N[C@H](C)c1ccc2c(c1)CC(=O)N2` [Compound I-334], the dissociation constant Kd under setting [2] was 1 to 25 µM.

As to `COc1ccc(C(CN(C)C)NC(=O)CSc2nc(=O)[nH]cc2C)cc1` (stereo not drawn) [Compound I-340], under setting [2], the dissociation constant Kd was above 25 µM.

Under setting [2], `C#CCOCCOCCOCC(Sc1nc(=O)[nH]cc1Cl)C(=O)NC(C)c1ccc(OC)cc1F` (stereo not drawn) [Compound I-342] registered a Kd of 1 to 25 µM.

In turn, `COc1ccc([C@@H](C)NC(=O)[C@@H](CCOCCOCCOCCN=[N+]=[N-])Sc2nc(=O)[nH]cc2Cl)c(F)c1` [Compound I-349] returned a Kd under setting [2] of 1 to 25 µM.

In turn, `COc1ccc([C@@H](C)NC(=O)[C@@H](COCCOCCOCCN=[N+]=[N-])Sc2nc(=O)[nH]cc2C)c(F)c1` [Compound I-367] returned a dissociation constant (Kd) under setting [2] of 1 to 25 µM.

Consider `COc1ccc([C@@H](C)NC(=O)[C@H](COCCOCCOCCN=[N+]=[N-])Sc2nc(=O)[nH]cc2C)c(F)c1` [Compound I-368], for which, under setting [2], the Kd was 1 to 25 µM.

For `COc1ccc([C@@H](C)NC(=O)[C@@H](CCOCCOCCOCCN=[N+]=[N-])Sc2nc(=O)[nH]cc2C)c(F)c1` [Compound I-378], the Kd under setting [2] lay within 1 to 25 µM.

Under setting [2], `COc1ccc(C(C)NC(=O)C(CCOCCOCCOCCn2cc(CCc3ccc(NC(=O)Nc4nc(CC(=O)N5CCN(C)CC5)cs4)cc3)nn2)Sc2nc(=O)[nH]cc2Cl)c(F)c1` (stereo not drawn) [Compound I-384] yielded a dissociation constant (Kd) above 25 µM.

As to `COc1ccc([C@@H](C)NC(=O)[C@@H](COCCOCCOCCN=[N+]=[N-])Sc2nc(=O)[nH]cc2Cl)c(F)c1` [Compound I-392], under setting [2], the dissociation constant Kd was in the range of 1 to 25 µM.

As to `COc1ccc(CNC(=O)[C@H](CCOCCOCCOCCN=[N+]=[N-])Sc2nc(=O)[nH]cc2Cl)cc1` [Compound I-400], under setting [2], the dissociation constant (Kd) is above 25 µM.

`COc1ccc(CNC(=O)[C@@H](CCOCCOCCOCCN=[N+]=[N-])Sc2nc(=O)[nH]cc2Cl)c(F)c1` [Compound I-401] came in with a Kd under setting [2] above 25 µM.

Compound `COc1ccc(CNC(=O)[C@H](CCOCCOCCOCCN=[N+]=[N-])Sc2nc(=O)[nH]cc2Cl)c(F)c1` [Compound I-402] registered a Kd under setting [2] of 1 to 25 µM.

For `COc1ccc(CNC(=O)[C@H](COCCOCCOCCN=[N+]=[N-])Sc2nc(=O)[nH]cc2C)cc1` [Compound I-404], the equilibrium dissociation constant (Kd) under setting [2] lay in the range of 1 to 25 µM.

On to `COc1ccc(CNC(=O)[C@@H](COCCOCCOCCN=[N+]=[N-])Sc2nc(=O)[nH]cc2C)c(F)c1` [Compound I-405], for which the Kd under setting [2] was in the range of 1 to 25 µM.

Regarding `Cc1c[nH]c(=O)nc1S[C@H](COCCOCCOCCN=[N+]=[N-])C(=O)NCc1ccc2c(c1)CC(=O)N2` [Compound I-407], under setting [2], the dissociation constant (Kd) was 1 to 25 µM.

The compound `Cc1c[nH]c(=O)nc1S[C@@H](COCCOCCOCCN=[N+]=[N-])C(=O)NCc1ccc2c(c1)CC(=O)N2` [Compound I-408] showed a Kd under setting [2] of 1 to 25 µM.

As to `[N-]=[N+]=NCCOCCOCCOCC[C@@H](Sc1nc(=O)[nH]cc1Cl)C(=O)NCc1ccc2c(c1)CC(=O)N2` [Compound I-409], the dissociation constant (Kd) under setting [2] was above 25 µM.

For `[N-]=[N+]=NCCOCCOCCOCC[C@H](Sc1nc(=O)[nH]cc1Cl)C(=O)NCc1ccc2c(c1)CC(=O)N2` [Compound I-410], under setting [2], the Kd was above 25 µM.

The compound `COC[C@H](Sc1nc(=O)[nH]cc1C)C(=O)NCc1ccc2c(c1)CC(=O)N2C` [Compound I-412] registered a dissociation constant (Kd) under setting [2] of 1 to 25 µM.

For `COc1ccc2c(c1)C[C@@H](COCCOCCOCCOCCN=[N+]=[N-])N(C(=O)CSc1nc(=O)[nH]cc1Cl)C2` [Compound I-415], the dissociation constant Kd under setting [2] is above 25 µM.

Regarding `COc1ccc2c(c1)C[C@H](COCCOCCOCCOCCN=[N+]=[N-])N(C(=O)CSc1nc(=O)[nH]cc1Cl)C2` [Compound I-416], under setting [2], the Kd lay within 1 to 25 µM.

Consider `COc1ccc2c(c1)CCN(C(=O)[C@@H](COCCOCCOCCN=[N+]=[N-])Sc1nc(=O)[nH]cc1C)[C@@H]2C` [Compound I-421, 4-[(1R)-1-[2-[2-(2-azidoethoxy)ethoxy]ethoxymethyl]-2-[(1R)-6-methoxy-1-methyl-3,4-dihydro-1H-isoquinolin-2-yl]-2-oxo-ethyl]sulfanyl-5-methyl-1H-pyrimidin-2-one], for which, under setting [2], the Kd is above 25 µM.

In the case of `COc1ccc2c(c1)[C@H](COCCOCCOCCOCCN=[N+]=[N-])CN(C(=O)CSc1nc(=O)[nH]cc1Cl)[C@@H]2C` [Compound I-426], the Kd under setting [2] lay in the range of 1 to 25 µM.

`COc1ccc2c(c1)C[C@H](COCCOCCOCCOCCN=[N+]=[N-])N(C(=O)CSc1nc(=O)[nH]cc1Cl)[C@@H]2C` [Compound I-428] yielded a dissociation constant Kd under setting [2] of 1 to 25 µM.

For the compound `COc1ccc2c(c1)CCN(C(=O)CSc1nc(=O)[nH]cc1Cl)C2` [Compound I-431], the dissociation constant (Kd) under setting [2] is 1 to 25 µM.

Compound `C#CCOCCOCCOCCOC[C@@H]1Cc2cc(OC)ccc2[C@@H](C)N1C(=O)CSc1nc(=O)[nH]cc1Cl` [Compound I-432] displayed a Kd under setting [2] of 1 to 25 µM.

For the compound `C#CCOCCOCCOCCOC[C@H]1Cc2cc(OC)ccc2[C@@H](C)N1C(=O)CSc1nc(=O)[nH]cc1Cl` [Compound I-433], under setting [2], the equilibrium dissociation constant (Kd) is above 25 µM.

As to `COc1cc(F)c2c(c1)CCN(C(=O)CSc1nc(=O)[nH]cc1Cl)C2` [Compound I-440], the equilibrium dissociation constant (Kd) under setting [2] was above 25 µM.

`COCCOCCC(Sc1nc(=O)[nH]cc1C)C(=O)NCc1ccc(OC)cc1` (stereo not drawn) [Compound I-443] registered a Kd under setting [2] of 1 to 25 µM.

For the compound `COCCOCC[C@@H](Sc1nc(=O)[nH]cc1C)C(=O)NCc1ccc(OC)cc1` [Compound I-444], the equilibrium dissociation constant (Kd) under setting [2] is 1 to 25 µM.

`C#CCOCCOCCOCCOC[C@@H]1Cc2cc(OC)ccc2[C@H](C)N1C(=O)CSc1nc(=O)[nH]cc1Cl` [Compound I-482] returned an equilibrium dissociation constant (Kd) under setting [2] of 1 to 25 µM.

`COc1ccc2c(c1)C[C@H](COCCOCCOCCOCCN=[N+]=[N-])N(C(=O)CSc1nc(=O)[nH]cc1C)C2` [Compound I-487] gave a Kd under setting [2] above 25 µM.

Take `COc1ccc(CNC(=O)[C@H](CCc2ccc(O)cc2)Sc2nc(=O)[nH]cc2C)cc1` [Compound I-489]: the dissociation constant Kd under setting [2] was in the range of 1 to 25 µM.

For the compound `COCCNC(=O)CCC(Sc1nc(=O)[nH]cc1C)C(=O)NCc1ccc(OC)cc1` (stereo not drawn) [Compound I-490], the dissociation constant Kd under setting [2] fell in the range of 1 to 25 µM.

The compound `COc1ccc(CNC(=O)C(CCC(=O)N2CCN(C)CC2)Sc2nc(=O)[nH]cc2C)cc1` (stereo not drawn) [Compound I-491] showed a Kd under setting [2] above 25 µM.

Under setting [2], `CC#CCNC(=O)CCC(Sc1nc(=O)[nH]cc1C)C(=O)NCc1ccc(OC)cc1` (stereo not drawn) [Compound I-492] returned a dissociation constant (Kd) above 25 µM.

Compound `C#CCOCCOCCOCCOC[C@H]1CN(C(=O)CSc2nc(=O)[nH]cc2Cl)[C@@H](C)c2ccc(OC)cc21` [Compound I-493] displayed a Kd under setting [2] of 1 to 25 µM.

`COCCN1CCN(CCC(Sc2nc(=O)[nH]cc2C)C(=O)NCc2ccc(OC)cc2)CC1` (stereo not drawn) [Compound I-499] returned a dissociation constant (Kd) under setting [2] of 1 to 25 µM.

`COCCOCC#CCC(Sc1nc(=O)[nH]cc1C)C(=O)NCc1ccc(OC)cc1` (stereo not drawn) [Compound I-500] had a Kd under setting [2] of 1 to 25 µM.

In the case of `COCCOCC#CC[C@H](Sc1nc(=O)[nH]cc1C)C(=O)NCc1ccc(OC)cc1` [Compound I-502], under setting [2], the Kd lay within 1 to 25 µM.

In general, Kd refers to the constant that tells how readily two partners part at equilibrium. Low readings indicate tighter binding, high ones weaker binding.

The values are drawn from patent US20260199485A1, “RNA DEGRADERS AND USES THEREOF” (Arrakis Therapeutics, Inc., priority 2022, published 2026).
